Reference: patent US7141546B1, “CRFR2 selective ligands” (priority 2001, dated 2006)
pIC50, pKi: −log10 of the molar value. Read-outs that look alike come from different tables or passages of the source. Bridge positions count the residues as written; N and C are the ends. Square brackets hold non-standard residues; d marks the D form. Peptide text beside a SMILES is read from it. αMeL = CC(C)C[C@](C)(N)C(=O)O; Nle = CCCC[C@H](N)C(=O)O

Key:
[1] = target: T1, CRFR2 (Homo sapiens, UniProt Q13324); experiment: cAMP accumulation in CHO cells stably transfected with CRFR2 and treated with CRF; assay type: cell-based; settings: for antagonism of CRF activity with respect to CRFR2 (cAMP accumulation): CHO cells stably transfected with CRFR2, treated with CRF
T1 construct: expressed in transfected cells
T1 sequence (Q13324 1-438 isoform Q13324-2): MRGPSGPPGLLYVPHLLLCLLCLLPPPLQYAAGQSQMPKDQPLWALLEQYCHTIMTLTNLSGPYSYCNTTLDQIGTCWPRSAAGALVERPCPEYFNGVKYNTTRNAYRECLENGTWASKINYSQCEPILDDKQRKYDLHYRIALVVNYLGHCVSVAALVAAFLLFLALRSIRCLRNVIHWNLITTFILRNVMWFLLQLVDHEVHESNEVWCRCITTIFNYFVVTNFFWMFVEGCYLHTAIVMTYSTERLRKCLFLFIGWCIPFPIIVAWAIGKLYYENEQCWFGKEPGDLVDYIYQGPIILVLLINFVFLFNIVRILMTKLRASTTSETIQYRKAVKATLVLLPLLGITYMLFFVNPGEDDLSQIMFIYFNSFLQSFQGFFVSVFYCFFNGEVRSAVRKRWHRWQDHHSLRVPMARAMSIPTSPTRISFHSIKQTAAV
Source text: In addition to inhibiting CRF receptor binding, a candidate's CRF receptor antagonist activity may be established by the ability of the compound to antagonize an activity associated with CRF. For example, CRF is known to stimulate various biochemical processes, including adenylate cyclase activity. Therefore, compounds may be evaluated as CRF antagonists by their ability to antagonize CRF-stimulated adenylate cyclase activity by, for example, measuring cAMP levels. The inhibition of CRF-stimulated adenylate cyclase activity, determined by the assay described by G. Battaglia et al., Synapse 1:572 (1987), provides an assay for determining a compound's ability to antagonize CRF activity. Accordingly, CRF receptor antagonist activity may be determined by assay techniques which generally include an initial binding assay followed by such a cAMP screening protocol. […]

[2] = target: T2, CRFR1 (Homo sapiens, UniProt P34998); experiment: cAMP accumulation in CHO cells stably transfected with CRFR1 and treated with CRF; assay type: cell-based
T2 construct: expressed in transfected cells
T2 sequence (P34998 24-415): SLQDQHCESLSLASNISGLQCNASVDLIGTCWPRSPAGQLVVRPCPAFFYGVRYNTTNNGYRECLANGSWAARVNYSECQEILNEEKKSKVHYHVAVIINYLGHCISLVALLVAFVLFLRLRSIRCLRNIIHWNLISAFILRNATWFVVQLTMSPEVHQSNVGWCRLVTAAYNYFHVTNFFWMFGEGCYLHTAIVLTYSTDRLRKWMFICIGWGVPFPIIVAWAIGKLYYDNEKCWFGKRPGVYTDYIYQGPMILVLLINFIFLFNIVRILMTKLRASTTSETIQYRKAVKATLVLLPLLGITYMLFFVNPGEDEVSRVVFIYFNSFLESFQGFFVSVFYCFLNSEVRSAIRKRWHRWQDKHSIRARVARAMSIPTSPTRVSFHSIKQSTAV
Source text: In addition to inhibiting CRF receptor binding, a candidate's CRF receptor antagonist activity may be established by the ability of the compound to antagonize an activity associated with CRF. For example, CRF is known to stimulate various biochemical processes, including adenylate cyclase activity. Therefore, compounds may be evaluated as CRF antagonists by their ability to antagonize CRF-stimulated adenylate cyclase activity by, for example, measuring cAMP levels. The inhibition of CRF-stimulated adenylate cyclase activity, determined by the assay described by G. Battaglia et al., Synapse 1:572 (1987), provides an assay for determining a compound's ability to antagonize CRF activity. Accordingly, CRF receptor antagonist activity may be determined by assay techniques which generally include an initial binding assay followed by such a cAMP screening protocol.
(§1) Binding assays with cells expressing human CRFR1 are carried out as described in the Chen et al. P.N.A.S., supra. The affinities of test peptides for CRFR1 and CRFR2b stably expressed in CHO cells were determined by competitive displacement of ^125I-(Nle^21, Tyr^32) ovine CRF (for CRFR1) or of [^125I-Tyr^o-]Ucn (for CRFR2b) as described.

[3] = target: T3, human CRFR2b (Homo sapiens, UniProt Q13324); experiment: Competitive displacement binding assay, stably transfected CHO cells expressing human CRFR2b; settings: for binding selectivity, CRFR2 versus CRFR1: in words, binding to CRFR2 compared with CRFR1
T3 construct: expressed in transfected cells
T3 sequence (Q13324 1-438 isoform Q13324-2): T1 sequence (Q13324 1-438 isoform Q13324-2)
Method: (§2) CRF receptors have now been cloned and are disclosed in the aforementioned Chen et al. article, in Perrin, M., et al., P.N.A.S, 92, 2969–2973 (March 1995), and in Lovenberg, T., et al., P.N.A.S., 92, 836–840 (January 1995). Binding affinity is a term used to refer to the strength of interaction between ligand and receptor. […] Ki (inhibitory binding affinity constant) is determined using a “standard” or “tracer” radioactive ligand and thus measures the displacement of the tracer from the receptor or binding protein; it is most properly expressed with reference to such tracer. However, so long as these assays are carefully performed under specific conditions with relatively low concentrations of receptor or the like, the calculated Ki will be substantially the same as its dissociation constant KD. […] It is particularly efficient to test for Ki because only a single tracer need be labelled, e.g. radioiodinated. […] Those reported hereinafter are derived using radioactively labeled [Tyr Glu^1, Nle^17]-Svg as a radioligand.
as §1

[4] = target: T2, CRFR1; experiment: Competitive displacement binding assay, cloned hCRFR1 expressed in CHO cells
Source text: A candidate CRFR2 ligand is also easily evaluated in a binding assay using known CRF receptors, such as that described in Perrin, M., et al., Endocrinology, 118, 1171–1179 (1986). CRF receptors and the details of binding assays are discussed later in this specification. […] One such representative binding assay utilizing CRF-R1 receptor is described in Chen, et al., P.N.A.S., 90, 8967–8971 (October 1993).
as §2, §1

| Molecule | antagonism of CRF activity with respect to CRFR2 (cAMP accumulation) [1] | antagonism of CRF activity with respect to CRFR1 (cAMP accumulation) [2] | binding selectivity, CRFR2 versus CRFR1 [3] | other results |
| --- | --- | --- | --- | --- |
| (cyclo 31–34)[Ac-D-Leu^11, His^12, CML^13,39, Nle^17, Glu^31 Lys^34]-sauvagine(8–40) [Example 3] | effectively antagonize CRF activity |  |  |  |
| [Ac-Asp^8,D-Phe^11,CML^13,39, Lys^34]-Ucn(8–40) [Example 10D] | effectively antagonize CRF activity | little or no effect | very good selectivity |  |
| (cyclo 31–34) [D-Tyr^11, Lys^34], -Ucn(11–40) [Example 10] | effectively antagonize CRF activity | little or no effect | very good selectivity |  |
| (cyclo 31–34)[Ac-D-Tyr^11, His^12, CML^13,39, Nle^17, Glu^31, Lys^34]-sauvagine(11–40) [Example 4] | effectively antagonize CRF activity |  |  |  |
| CCCC[C@H](NC(=O)[C@H](CCCCN)NC(=O)[C@H](CCCNC(=N)N)NC(=O)[C@H](CC(C)C)NC(=O)[C@](C)(CC(C)C)NC(=O)[C@H](Cc1c[nH]cn1)NC(=O)[C@@H](Cc1ccccc1)NC(=O)[C@H](CO)NC(=O)[C@H](CC(C)C)NC(=O)[C@H](CC(=O)O)NC(C)=O)C(=O)N[C@H](C(=O)N[C@@H](CCC(=O)O)C(=O)N[C@H](C(=O)N[C@@H](CCC(=O)O)C(=O)N[C@@H](CCCCN)C(=O)N[C@@H](CCC(N)=O)C(=O)N[C@@H](CCC(=O)O)C(=O)N[C@@H](CCCCN)C(=O)N[C@@H](CCC(=O)O)C(=O)N[C@@H](CCCCN)C(=O)N[C@@H](CCC(N)=O)C(=O)N[C@@H](CCC(N)=O)C(=O)N[C@@H](C)C(=O)N[C@H]1CCC(=O)NCCCC[C@@H](C(=O)N[C@@H](CC(C)C)C(=O)N[C@@H](CC(C)C)C(=O)N[C@@H](CC(C)C)C(=O)N[C@@H](CC(=O)O)C(=O)N[C@@](C)(CC(C)C)C(=O)N[C@H](C(N)=O)[C@@H](C)CC)NC(=O)[C@H](CC(N)=O)NC(=O)[C@H](CC(N)=O)NC1=O)[C@@H](C)CC)[C@@H](C)CC [Example 2 cyclic peptide, (cyclo 31–34)[Ac-D-Phe^11, His^12, CML^13,39, Nle^17, Glu^31, Lys^34]-sauvagine(8–40)] | effectively antagonize CRF activity | little or no effect |  | pIC50 [4]: < 6.30; pKi [4]: ~6.27; pIC50 [3]: 8.89 |
| (cyclo 31–34) [Ac-Asp^8,D-Phe^11,Lys^34]-Ucn(8–40) [Example 10C] | effectively antagonize CRF activity | little or no effect | very good selectivity | selectivity as Ucn antagonist ([1]; in words, compared with the parent Ucn analog): does not significantly alter its selectivity |
| (cyclo 31–34)[Ac-D-Cpa^11, His^12, CML^13,39, Nle^17, Glu^31, Lys^34]-sauvagine(11–40) [Example 5] | effectively antagonize CRF activity |  |  |  |
| (cyclo 31–34)[D-Phe^11, Lys^34]-Ucn(11–40) [Example 10A] | effectively antagonize CRF activity | little or no effect | very good selectivity |  |
| (cyclo 31–34)[Ac-D-2Nal^11, His^12, CML^13,39, Nle^17, Glu^31, Lys^34]-sauvagine(11–40) [Example 6] | effectively antagonize CRF activity |  |  |  |
| (cyclo 31–34)[Ac-D-Phe^11, His^12, CML^13,39, Nle^17, Glu^31, Orn^34]-sauvagine(11–40) [Example 8] | effectively antagonize CRF activity |  |  |  |
| (cyclo 31–34)[Ac-D-3 Pal^11, His^12, CML^13,39, Nle^17, Glu^31, Lys^34]-sauvagine(11–40) [Example 7] | effectively antagonize CRF activity |  |  |  |
| [D-Phe^11, Gln^31,Lys(Ac)^34]-Ucn(11–40) [Example 10B] | effectively antagonize CRF activity | little or no effect | very good selectivity |  |
| CCCC[C@H](NC(=O)[C@H](CCC(=O)O)NC(=O)[C@H](CC(C)C)NC(=O)[C@@H](NC(=O)[C@H](CCC(=O)O)NC(=O)[C@H](CCCNC(=N)N)NC(=O)[C@H](CC(C)C)NC(=O)[C@](C)(CC(C)C)NC(=O)[C@H](Cc1c[nH]cn1)NC(=O)[C@H](N)Cc1ccccc1)C(C)C)C(=O)N[C@@H](C)C(=O)N[C@@H](CCCNC(=N)N)C(=O)N[C@@H](C)C(=O)N[C@@H](CCC(=O)O)C(=O)N[C@@H](CCC(N)=O)C(=O)N[C@@H](CC(C)C)C(=O)N[C@@H](C)C(=O)N[C@@H](CCC(N)=O)C(=O)N[C@@H](CCC(N)=O)C(=O)N[C@@H](C)C(=O)N[C@H]1CCC(=O)NCCCC[C@@H](C(=O)N[C@@H](CCCCN)C(=O)N[C@@H](CC(C)C)C(=O)N[C@@H](CCCC)C(=O)N[C@@H](CCC(=O)O)C(=O)N[C@@](C)(CC(C)C)C(=O)N[C@H](C(N)=O)[C@@H](C)CC)NC(=O)[C@H](CC(N)=O)NC(=O)[C@H](CO)NC1=O [Example 9B, (cyclo 32–35) [D-Phe^12, CML^14,40, Nle^21,38, Glu^32, Lys^35]-r/hCRF(12–41)] (H-[dF]H[αMeL]LREVLE[Nle]ARAEQLAQQAESNKKL[Nle]E[αMeL]I-NH2; lactam 21-24) |  |  |  | pIC50 ([4]; read-out: affinity of cloned hCRFR1 for the peptide (competitive displacement of bound radioligand)): < 7.00 |
